Here are results for 6 molecules from patent US8552018B2, “Substituted tricyclic compounds as protein kinase inhibitors” (Arizona Board of Regents on behalf of the University of …, priority 2003, dated 2013).

pIC50: −log10 of the molar value.

The target of test [1] is T1, aurora-2 kinase (Homo sapiens, UniProt O14965).
T1 construct: purchased Imgenex, San Diego, Calif; host or cells: sf9 cells
T1 sequence (O14965 1-403): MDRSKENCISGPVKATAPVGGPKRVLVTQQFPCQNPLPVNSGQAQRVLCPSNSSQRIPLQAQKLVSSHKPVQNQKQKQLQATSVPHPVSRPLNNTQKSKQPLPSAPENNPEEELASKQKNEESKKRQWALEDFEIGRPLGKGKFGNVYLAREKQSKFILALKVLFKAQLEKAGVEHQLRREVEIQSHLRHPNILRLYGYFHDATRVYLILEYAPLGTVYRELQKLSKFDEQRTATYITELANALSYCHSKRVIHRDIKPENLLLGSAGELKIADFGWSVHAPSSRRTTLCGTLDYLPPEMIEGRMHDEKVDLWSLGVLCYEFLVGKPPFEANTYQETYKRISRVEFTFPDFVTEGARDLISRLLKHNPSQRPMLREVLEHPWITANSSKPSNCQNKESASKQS
Briefly: Aurora-2 kinase inhibition assay (Kinase-Glo). It is filed as biochemical. As to conditions: aurora-2 kinase, FIG. 11. As to the method: In this assay kinase activity is determined by quantifying the amount of ATP remaining in solution following the kinase reaction by measuring the light units (LU) produced by luciferase using a luminometer. Percent inhibition was determined for individual compounds by comparing luminometer readings of drug-treated reactions to controls containing no drug (DMSO control) and no Aurora-2 enzyme (ATP control) in the following equation: […]
In a 50 μl reaction, recombinant aurora-2 kinase produced in sf9 cells (Imgenex, San Diego, Calif.) was incubated at 30° C. for two hours with 62.5 μM Kemptide (Calbiochem, San Diego, Calif.), 3 μM ATP (Invitrogen, Carlsbad, Calif.) and kinase reaction buffer (40 mM Tris-HCl, 10 mM MgCl2 and 0.1 μg/μl bovine serum albumin (BSA)). This reaction was carried out in the presence of drug substances, which had been previously diluted to desired concentrations in DMSO. After incubation, 50 μl of Kinase-Glo® (Promega, Inc., Madison, Wis.) solution was added to each reaction mixture and allowed to equilibrate for 10 minutes at room temperature. Kinase-Glo solution contains luciferase enzyme and luciferin, which react with ATP to produce light. Kinase activity is determined by quantifying the amount of ATP remaining in solution following the kinase reaction by measuring the light units (LU) produced by luciferase using a luminometer (PerkinElmer, Boston, Mass.).

In test [2] the test system is GIST882 cell line. Briefly: Cancer cell cytotoxicity assay (sulforhodamine B). In kind it is cell-based. As to conditions: for pIC50: Homo sapiens, 96 h, GIST882, 4 days, read-out: IC50 c-kit GIST882. As to the method:
To validate the hypothesis that the designed c-kit/PDGFR tyrosine kinase inhibitors mediate GIST882 cell killing and PDGFR-mediated cell killing of pancreatic cancer cell lines (CFPAC-1, PANC-1 and MIA PaCa-2), an in vitro cytotoxicity assay was performed. The GIST882 cell line used in this study has a c-kit gain-of-function mutation (K642E). […] First the cells were cultured. GIST882 cells were provided by Dr. Jonathan A. Fletcher (Dana-Farber Cancer Institute, Boston, Mass.). PANC-1 and MIAPaCa-2 cells were provided by Dr. Daniel Von Hoff (Arizona Cancer Center, Tucson, Ariz.). […] All the cell lines were incubated in a humidified incubator at 37° C. with 5% CO2 atmosphere.
(§1) After incubation for 4 days at 37° C. in a humidified incubator, the cells were fixed with 10% Trichloroacetic acid solution (Catalog No. 490-10, Sigma). Subsequently, they were labeled with 0.04% Sulforhodamine B (S9012, Sigma) in 1% acetic acid. After multiple washes to remove excess dye, 100 μl of 50 mM Tris solution was added to each well in order to dissolve the dye. The absorbance of each well was read on a plate reader (Wallac Vector^2, PerkinElmer) at the wavelength of 570 nm. Data were expressed as the percentage of survival of control calculated from the absorbance corrected for background absorbance. The surviving percent of cells was determined by dividing the mean absorbance values of the […] by the mean absorbance values of the control and multiplying by 100.

The subject of test [3] is PANC-1 cells. Briefly: Cancer cell cytotoxicity assay (sulforhodamine B). It is filed as cell-based. As to conditions: Homo sapiens, 96 h; PANC-1, 4 days; read-out: IC50 PDGFR PANC-1. As to the method:
(§2) To validate the hypothesis that the designed c-kit/PDGFR tyrosine kinase inhibitors mediate GIST882 cell killing and PDGFR-mediated cell killing of pancreatic cancer cell lines (CFPAC-1, PANC-1 and MIA PaCa-2), an in vitro cytotoxicity assay was performed. The GIST882 cell line used in this study has a c-kit gain-of-function mutation (K642E). The assay utilized the Cell Titer 965 Non-Radioactive Cell Proliferation Assay (Promega Corp., Madison, Wis.). First the cells were cultured. GIST882 cells were provided by Dr. Jonathan A. Fletcher (Dana-Farber Cancer Institute, Boston, Mass.). PANC-1 and MIAPaCa-2 cells were provided by Dr. Daniel Von Hoff (Arizona Cancer Center, Tucson, Ariz.). GIST882 cells were cultured in RPMI 1640 medium (Cat #21870-076, Invitrogen Corporation) supplemented with 300 mg/L L-glutamine, 100 unit/ml penicillin, 100 μg/ml streptomycin and 15% fetal bovine serum. PANC-1 and MIAPaCa-2 cells were maintained in RPMI 1640 medium (cat #10-040, Mediatech, Inc.) supplemented with 100 unit/ml penicillin, 100 μg/ml streptomycin and 10% fetal bovine serum. All the cell lines were incubated in a humidified incubator at 37° C. with 5% CO2 atmosphere.
as §1, with “Cells were plated at a density of 2000 to 10000 cells per well, depending on their growth rate, in 0.1 mL medium on day 0 in 96-well Falcon microtiter plates (#3072, Becton-Dickinson Labware, Lincoln Park, N.J.). On day 1, 10 μL of serial dilutions of the individual compounds were added to the plates in replicates of 4. After incubation” for “After incubation”

The test system of test [4] is MIAPaCa-2 cells. Briefly: Cancer cell cytotoxicity assay (sulforhodamine B). As to conditions: Homo sapiens, MIA PaCa-2, 96 h; MIAPaCa-2, 4 days; read-out: IC50 PDGFR MIAPaCa. It is filed as cell-based. How it is done:
as §2
as §1, with “Cells were plated at a density of 2000 to 10000 cells per well, depending on their growth rate, in 0.1 mL medium on day 0 in 96-well Falcon microtiter plates (#3072, Becton-Dickinson Labware, Lincoln Park, N.J.). On day 1, 10 μL of serial dilutions of the individual compounds were added to the plates in replicates of 4. After incubation” for “After incubation”

For test [5], the system named is GIST882 cell line. Briefly: GIST882 cell growth assay (Cell-Titer-Glo). It is filed as cell-based. Conditions: Homo sapiens; GIST882, 96 hours. As to the method:
(§3) Briefly, cells are seeded into 96-well, tissue-culture treated, opaque white plates (Thermo Electron, Vantaa, Finland), at between 5000 and 7500 cells per well, depending on the speed of cell proliferation, in 100 μl of appropriate growth medium (determined by the ATCC). Cells are then exposed to the appropriate concentration of drug or an equal amount of DMSO (drug diluent) and allowed to grow in its presence for 96 hours. Following this, 100 μl of Cell-Titer-Glo reagent (Promega, Inc., Madison, Wis.) is added to each well. Plates are then shaken for 2 minutes at room temperature to allow for cell lysis and incubated for 10 minutes to stabilize the luminescent signal. Similar to the Kinase-Glo assay reagent, this reagent contains both luciferase enzyme and its substrate luciferin. Luciferase, activated by ATP in the cell lysate, catalyzes the conversion of luciferin to oxyluciferin, a reaction which produces light. The amount of light produced is proportionate to the amount of ATP in the cell lysate, which is itself proportional to cell number and gives an index of cellular proliferation.
as §3, with “Various compounds of the invention, including (IV-1-3) (also referred to as HPK16), (III-1-3) (also referred to as HPK56), (III-1-4) (also referred to as HPK57), (III-1-5) (also referred to as HPK59), and (II-2-7) (also referred to as HPK61) were tested for activity against GIST tumor cells using the GIST882 cell line. Briefly,” for “Briefly,”

For test [6], the system named is metastatic GISTs. As to conditions: 400 mg or 600 mg per day, patients assessed at 1-3 months; cited from earlier work.
Test [7] concerns Akt phosphorylation in LNCaP prostate carcinoma cells. The experiment in a line: Immunoblot for phospho-Akt (S473). In kind it is cell-based. As to conditions: 48 hours, agent alone. How it is done:
LNCaP prostate carcinoma cells were treated with MP-470, in combinations with Tarceva® and Gleevec®, for 48 hours. Following incubation, cells were lysed and total protein subjected to immunoblot analysis for total Akt and phospho-Akt (S473).

The subject of test [8] is c-Met autophosphorylation in NIH 3T3 cells. Briefly: Immunoblot for phospho-Met. In kind it is cell-based. As to conditions: NIH 3T3, 4 hours, agent alone. As to the method:
(§4) MP-470 (Compound III-1-3) has inhibitory effects on a number of receptor tyrosine kinases. In order to evaluate these effects at the cellular level, immunoblot analysis was performed on lysates from cells treated with MP470, with or without the addition of the EGFR inhibitor Tarceva®. Lysates were assayed for general tyrosine kinase activity, as well as the specific phosphorylation of c-Met and Akt. Briefly, NIH 3T3 cells were pretreated with drugs as indicated for 4 hours, then treated with pervanadate for a further 30 minutes. Immunoblot detection was carried out with antibodies for phosphotyrosine, phospho-Met and phospho-Akt (S473), as well as total c-Met and Akt. Beta-actin was used as a loading control.

Test [9] has as its system Akt phosphorylation in NIH 3T3 cells. Briefly: Immunoblot for phospho-Akt (S473). Conditions: NIH 3T3, 4 hours, agent alone. In kind it is cell-based. As to the method: as §4, with “In” for “MP-470 (Compound III-1-3) has inhibitory effects on a number of receptor tyrosine kinases. In”
In general terms: A western blot detects proteins with antibodies after separation by electrophoresis.

The pIC50 is −log10 of the IC50, conventionally taken in molar units. Molecule `COc1cc2ncnc(Nc3ncc(NC(=S)NCc4ccc5c(c4)OCO5)cn3)c2cc1OC` [AKS110, 1-Benzo[1,3]dioxol-5-yl methyl-3-[2-(6,7-dimethoxy-quinazolin-4ylamino)-pyrimidin-5yl]-thiourea] showed a pIC50 in test [1] of 4.44.
With `S=C(NCc1ccc2c(c1)OCO2)N1CCN(c2ncnc3c2sc2ncccc23)CC1` [HPK57, 4-(9-Thia-1,5,7-triaza-fluoren-8-yl)-piperazine-1-carbothioic acid (benzo[1,3]dioxol-5-ylmethyl)-amide], the pIC50 is 4.55 in test [2], under 4.30 in [3], under 4.30 in test [4] and 4.55 in test [5].
With `O=S(=O)(Nc1ncccn1)c1ccc(NC(=S)N2CCN(c3ncnc4c3oc3ccccc34)CC2)cc1` [HPK59, 4-Benzo[4,5]furo[3,2-d]pyrimidin-4-yl-piperazine-1-carbothioic acid [4-(pyrimidin-2-ylsulfamoyl)-phenyl]-amide], the negative logarithm of the IC50 (pIC50) in [2] and in test [5] was 4.56 each time.
Take `O=S(=O)(Nc1ncccn1)c1ccc(NC(=S)N2CCN(c3ncnc4c3sc3ncccc34)CC2)cc1` [HPK60, 4-(9-Thia-1,5,7-triaza-fluoren-8-yl)-piperazine-1-carbothioic acid [4-(pyrimidin-2-ylsulfamoyl)-phenyl]-amide]: the pIC50 in test [2] was 4.30; in test [3] it was under 4.30; in [4] it was under 4.30; in test [5], 4.30.
As to `Cc1ccc(NC(=O)c2ccc(CN3CCN(C)CC3)cc2)cc1Nc1nccc(-c2cccnc2)n1` [STI571], the “cells alive at day 4” value in test [2] (GIST882, day 4) was 25%. For the same molecule, in [6], the partial response is 54%, the progressive disease is reported as 12% and the stable disease is given as 34%.
As for `C#Cc1cccc(Nc2ncnc3cc(OCCOC)c(OCCOC)cc23)c1` [Tarceva®, reference compound], the “phosphorylation of Akt” value in test [7] is on record as “did not appear to have an effect”; in test [9], “Neither of these effects was observed”. Further, the “activating autophosphorylation of c-Met” value in [8] is listed as “Neither of these effects was observed”.
